Experimental data as given in patent publication US10570179B2, “Substituted urea depsipeptide analogs as activators of the CLPP endopeptidase” (priority 2016, dated 2020).
Converted amounts (≈) assume the structure as drawn. Where two headings read alike, the source gives them in different places. Numbered stars: 1 amine (or outer) side, 2 acyl side, 3 side chain; on linkers, the order of the positions; unused ones are H or OH. Bridge positions count the residues as written; N and C are the ends. Square brackets hold non-standard residues; d marks the D form. Peptide text beside a SMILES is read from it. * marks the point of attachment. Phe(3-Me) = Cc1cccc(C[C@H](N)C(=O)O)c1; NH(4-Cl-2-F-phenyl) = Fc1cc(Cl)ccc1N*; Hyp = O=C(O)[C@@H]1C[C@@H](O)CN1; NH(4-Cl-phenyl) = Clc1ccc(N*)cc1; NH(4-Me-phenyl) = Cc1ccc(N*)cc1; aThr = C[C@H](O)[C@H](N)C(=O)O; Pip = O=C(O)[C@@H]1CCCCN1; CO = O=C([*:1])[*:2]

Columns and labels:
S. aureus USA 300 = experiment: Minimal inhibitory concentration, microbroth dilution; type: cell-based; settings: Staphylococcus aureus
Description: (§1) Minimal inhibitory concentrations (“MICs”) were determined using the microbroth dilution method according to Clinical Laboratory Standards Institute (CLSI; National, C.F. C. L. S., Methods for Dilution Antimicrobial Susceptibility Tests for Bacteria Grow aerobically-Seventh Edition: Approved Standard M7-A7, CLSI, Wayne, Pa., USA, 2008) and were read by visual inspection. Two fold serial dilutions of test compound in 100 μL of the appropriate broth media were first prepared in 96-well round bottom microtiter plates (Nalgene Nunc International, Rochester, N.Y., USA). An equivalent volume (100 μL) of bacterial broth inocula containing approximately 10^5 bacterial cfu/mL was added to each well to give final concentrations of test compound starting at 200 μM. The plates were then incubated aerobically at 37° C. All strains were incubated overnight. After incubations, in all cases the MIC was recorded as the lowest concentration of drug that prevented bacterial growth. The bacterial strains for which MIC was determined as described in Table 4.

E. faecails = experiment: as above; type: cell-based; settings: Enterococcus faecalis
Description: as §1

S. aureus ATCC 29213 = experiment: as above; type: cell-based; settings: Staphylococcus aureus
Description: as §1

MRSA NRS70 = experiment: as above; type: cell-based; settings: Staphylococcus aureus
Description: as §1

S. aureus ΔClpP = experiment: as above; type: cell-based, Staphylococcus aureus; settings: MIC; ClpP inactivated
Description: as §1

S. aureus ClpP (Sa-ClpP) = target: T1, S. aureus ClpP (Sa-ClpP) (Staphylococcus aureus, UniProt Q2G036); experiment: Casein-BODIPY digestion assay (ClpP activation); type: biochemical
T1 construct: made in house; host or cells: E. coli BL21 (DE3)
T1 sequence (Q2G036 whole entry): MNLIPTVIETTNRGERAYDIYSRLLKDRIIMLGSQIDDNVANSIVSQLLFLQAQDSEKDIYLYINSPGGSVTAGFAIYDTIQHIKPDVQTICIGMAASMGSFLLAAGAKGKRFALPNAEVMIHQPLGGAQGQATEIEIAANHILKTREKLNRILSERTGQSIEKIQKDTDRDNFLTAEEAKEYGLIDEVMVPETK
Description: The compounds were assayed in a casein digestion assay in order to determine their effect on ClpP activation. Briefly, the assay was carried out using S. aureus ClpP (“Sa-ClpP”) overexpressed in E. coli BL21 (DE3) and purified in a two-step process. Purity of the protein was assessed through SDS PAGE analysis. EC50 evaluations were conducted in triplicate in a 20 μl assay format using a method adapted from Maurizi et al. (Methods Enzymol. (1994) 244:314-331). Each well contained 10 μM saClpP, 25 μg/ml BODIPY FL casein (Invitrogen Corporation, San Diego, Calif.), and test compound in concentrations ranging between 0-1000 μM in assay buffer (50 mM Tris pH 8, 200 mM KCl, and 1 mM TCEP). The reaction took place at 37° C. Fluorescence (excitation 485 nm; emission 528 nm) was measured in five minute intervals over a 45 min period using a BioTek HT fluorescence microplate reader (BioTek Instruments, Inc., Winooski, Vt.). Velocity of each reaction was calculated and data was fit to a dose response curve using GraphPad Prism® software (GraphPad Software, Inc., La Jolla, Calif.). EC50 is the effective concentration of compound which causes 50% activation of S. aureus ClpP in the foregoing BODIPY FL casein assay.
Alternatively, the assay was carried out using EnzCheck Protease Assay (Molecular Probes, Catalog # E6638). The assay was performed in black 384 well, flat bottom, low volume plates (Greiner Bio-One, Monroe, N.C., catalog #784076). 10 μL of Tris.HCl buffer, pH 8.0 with 0.01% Triton X-100 was pipetted into each well using a Well-Mate (Thermo Scientific, Waltham, Mass.). 0.4 μL test compounds or controls (2% DMSO v/v) were added to each well using a Biomek FX liquid handling robot (Beckman Coulter, Indianapolis, Ind.). After addition of test compounds and controls, 10 μL of master mix containing 2 μM Sa-ClpP and 2 μM substrate (Bodipy-FL labeled casein) in Tris.HCl buffer, pH 8.0 with 0.01% (v/v) Triton X-100, was pipetted into each well. All assays were performed in triplicate, under linear velocity conditions. Increase in fluorescent signal following activation of Sa-ClpP by test compounds and controls was measured over time period of 30 mins using filters with excitation at 485±15 nm and emission at 520±25 nm on a PHERAstar FS Multilabel reader (BMG, Cary, N.C.). Instrument gains and enzyme linear velocity conditions were determined and validated using ADEP4, a known Sa-ClpP activator. Data analysis was done by measuring rate of casein degradation over time (slopes). Computed degradation rates (slopes) were normalized to positive (ADEP4) or negative (DMSO) controls. Using nonlinear regression curve fitting EC50 values and % activation were determined using the equation “log [agonist] vs. Response-variable slope (four parameters)-symmetrical” in the program Prism 6 (GraphPad Software, La Jolla, Calif. USA, www.graphpad.com).

[1] = USA300, MIC, read-out: Minimal Inhibitory Concentrations (μM) S. aureus USA 300
[2] = MIC, read-out: Minimal Inhibitory Concentrations (μM) E. faecails
[3] = ATCC29213, MIC, read-out: Minimal Inhibitory Concentrations (μM) S. aureus ATCC 29213
[4] = MIC, read-out: Minimal Inhibitory Concentrations (μM) MRSA NRS70
[5] = USA300, read-out: Minimal Inhibitory Concentrations (μM) S. aureus USA 300, MIC
[6] = read-out: Minimal Inhibitory Concentrations (μM) E. faecails, MIC
[7] = ATCC29213, read-out: Minimal Inhibitory Concentrations (μM) S. aureus ATCC 29213, MIC
[8] = read-out: Minimal Inhibitory Concentrations (μM) MRSA NRS70, MIC

| SMILES | MIC (S. aureus USA 300; [1]) [µM] | MIC (E. faecails; [2]) [µM] | MIC (S. aureus ATCC 29213; [3]) [µM] | MIC (MRSA NRS70; [4]) [µM] | Minimal Inhibitory Concentrations (μM) S. aureus ΔClpP (S. aureus ΔClpP) [µM] | MIC (S. aureus USA 300; [5]) [µM] | MIC (E. faecails; [6]) [µM] | MIC (S. aureus ATCC 29213; [7]) [µM] | MIC (MRSA NRS70; [8]) [µM] | EC50 (S. aureus ClpP (Sa-ClpP)) [nM] |
| --- | --- | --- | --- | --- | --- | --- | --- | --- | --- | --- |
| Cc1cccc(C[C@H](NC(=O)Nc2ccc(Cl)cc2F)C(=O)N[C@H]2COC(=O)[C@@H]3CCCN3C(=O)[C@H](C)NC(=O)[C@@H]3CCCCN3C(=O)[C@@H]3C[C@@H](O)CN3C2=O)c1 [Compound 48, (S)-2-(3-(4-CHLORO-2-FLUOROPHENYL)UREIDO)-N-((6S,8AS,14AS,16R,20S,23AS)-16-HYDROXY-6-METHYL-5,8,14,19,23-PENTAOXOOCTADECAHYDRO-1H,5H,14H,19H-PYRIDO[2,1-I]DIPYRROLO[2,1-C:2′,1′-L][1]OXA[4,7,10,13]TETRAAZACYCLOHEXADECIN-20-YL)-3-(M-TOLYL)PROPANAMIDE] | 1.25 (≈ 1.02 µg/mL) | 2.5 (≈ 2.03 µg/mL) | 1.25 (≈ 1.02 µg/mL) | 1.25 (≈ 1.02 µg/mL) | – | – | – | – | – | – |
| Cc1cccc(C[C@H](NC(=O)Nc2ccc(Cl)cc2F)C(=O)N[C@@H]2C(=O)N3C[C@H](O)C[C@H]3C(=O)N3CCCC[C@H]3C(=O)N[C@@H](C)C(=O)N3CCC[C@H]3C(=O)O[C@H]2C)c1 [Compound 50, (S)-2-(3-(4-CHLORO-2-FLUOROPHENYL)UREIDO)-N-((6S,8AS,14AS,16R,20S,21S,23AS)-16-HYDROXY-6,21-DIMETHYL-5,8,14,19,23-PENTAOXOOCTADECAHYDRO-1H,5H,14H,19H-PYRIDO[2,1-I]DIPYRROLO[2,1-C:2′,1′-L][1]OXA[4,7,10,13]TETRAAZACYCLOHEXADECIN-20-YL)-3-(M-TOLYL)PROPANAMIDE] ({NH(4-Cl-2-F-phenyl)-CO}-[Phe(3-Me)][aThr][Hyp][Pip]AP; ester 2-C) | 1.25 (≈ 1.03 µg/mL) | 2.5 (≈ 2.07 µg/mL) | 0.625 (≈ 0.516 µg/mL) | 0.313 (≈ 0.259 µg/mL) | >20 | – | – | – | – | – |
| Cc1ccc(NC(=O)N[C@@H](Cc2cccc(C)c2)C(=O)N[C@@H]2C(=O)N3C[C@H](O)C[C@H]3C(=O)N3CCCC[C@H]3C(=O)N[C@@H](C)C(=O)N3CCC[C@H]3C(=O)O[C@H]2C)cc1 [Compound 51, (S)—N-((6S,8AS,14AS,16R,20S,21S,23AS)-16-HYDROXY-6,21-DIMETHYL-5,8,14,19,23-PENTAOXOOCTADECAHYDRO-1H,5H,14H,19H-PYRIDO[2,1-I]DIPYRROLO[2,1-C:2′,1′-L][1]OXA[4,7,10,13]TETRAAZACYCLOHEXADECIN-20-YL)-3-(M-TOLYL)-2-(3-(P-TOLYL)UREIDO)PROPANAMIDE] ({NH(4-Me-phenyl)-CO}-[Phe(3-Me)][aThr][Hyp][Pip]AP; ester 2-C) | – | – | – | – | >20 | 5 (≈ 3.94 µg/mL) | 5 (≈ 3.94 µg/mL) | 5 (≈ 3.94 µg/mL) | 2.5 (≈ 1.97 µg/mL) | – |
| Cc1cccc(C[C@H](NC(=O)Nc2ccc(Cl)cc2)C(=O)N[C@@H]2C(=O)N3C[C@H](O)C[C@H]3C(=O)N3CCCC[C@H]3C(=O)N[C@@H](C)C(=O)N3CCC[C@H]3C(=O)O[C@H]2C)c1 [Compound 59, (S)-2-(3-(4-CHLOROPHENYL)UREIDO)-N-((6S,8AS,14AS,16R,20S,21S,23AS)-16-HYDROXY-6,21-DIMETHYL-5,8,14,19,23-PENTAOXOOCTADECAHYDRO-1H,5H,14H,19H-PYRIDO[2,1-I]DIPYRROLO[2,1-C:2′,1′-L][1]OXA[4,7,10,13]TETRAAZACYCLOHEXADECIN-20-YL)-3-(M-TOLYL)PROPANAMIDE] ({NH(4-Cl-phenyl)-CO}-[Phe(3-Me)][aThr][Hyp][Pip]AP; ester 2-C) | – | – | – | – | – | 1.25 (≈ 1.01 µg/mL) | 5 (≈ 4.04 µg/mL) | 2.5 (≈ 2.02 µg/mL) | 1.25 (≈ 1.01 µg/mL) | 810 ± 500 |
